This note sets out measurements from patent US6809110B2 (Hoffmann-La Roche Inc., priority 2002, dated 2004).

Consider `CCOC(Cc1ccc(OCCc2nc(-c3ccc(C)cc3)sc2C)c2ccccc12)C(=O)O` (racemic) [Example 78, [rac]-2-Ethoxy-3-{4-[2-(5-methyl-2-p-tolyl-thiazol-4-yl)-ethoxy]-naphthalen-1-yl}-propionic acid], for which the melting point (usually the temperature, or range, at which the solid turns liquid) lay within 140 to 141 °C.
In the case of `Cc1sc(-c2ccc(C(C)(C)C)cc2)nc1CCOc1ccc(CC(OC(C)C)C(=O)O)c2ccccc12` (racemic) [Example 86, [rac]-3-(4-{2-[2-(4-tert-Butyl-phenyl)-5-methyl-thiazol-4-yl]-ethoxy}-naphthalen-1-yl)-2-isopropoxy-propionic acid], the melting point lay in the range of 75 to 85 °C.
As for `CCOC(Cc1ccc(OCCc2nc(-c3cc(OC)cc(OC)c3)sc2C)c2ccccc12)C(=O)O` (racemic) [Example 88, [rac]-3-(4-{2-[2-(3,5-Dimethoxy-phenyl)-5-methyl-thiazol-4-yl]-ethoxy}-naphthalen-1-yl)-2-ethoxy-propionic acid], the melting point lay in the range of 133 to 135 °C.
The figure for `CCOC(Cc1ccc(OCCc2nc(-c3ccccc3)sc2C)c2ccccc12)C(=O)O` (racemic) [Example 51, [rac]-2-Ethoxy-3-{4-[2-(5-methyl-2-phenyl-thiazol-4-yl)-ethoxy]-naphthalen-1-yl}-propionic acid] is 140 to 143 °C; for `CCOC(Cc1ccc(OCCc2nc(-c3ccccc3)sc2C)c2ccsc12)C(=O)O` (racemic) [Example 1, [rac]-2-Ethoxy-3-{4-[2-(5-methyl-2-phenyl-thiazol-4-yl)-ethoxy]-benzo[b]thiophen-7-yl}-propionic acid] it is 146 to 148 °C; for `COc1cc(OC)cc(-c2nc(CCOc3ccc(CC(OC)C(=O)O)c4sccc34)c(C)s2)c1` (racemic) [Example 84, [rac]-3-(4-{2-[2-(3,5-Dimethoxy-phenyl)-5-methyl-thiazol-4-yl]-ethoxy}-benzo[b]thiophen-7-yl)-2-methoxy-propionic acid] it is 156 to 157 °C.
As to `CCOC(Cc1ccc(OCCc2nc(-c3ccc(C(C)(C)C)cc3)sc2C)c2ccsc12)C(=O)O` (racemic) [Example 74, [rac]-3-(4-{2-[2-(4-tert-Butyl-phenyl)-5-methyl-thiazol-4-yl]-ethoxy}-benzo[b]thiophen-7-yl)-2-ethoxy-propionic acid], the melting point was 152 to 154 °C.
`CCOC(Cc1ccc(OCCc2nc(-c3cc(OC)cc(OC)c3)sc2C)c2ccsc12)C(=O)O` (racemic) [Example 83, [rac]-3-(4-{2-[2-(3,5-Dimethoxy-phenyl)-5-methyl-thiazol-4-yl]-ethoxy}-benzo[b]thiophen-7-yl)-2-ethoxy-propionic acid] displayed a melting point of 148 to 150 °C.
In turn, `COC(Cc1ccc(OCc2sc(-c3ccc(C(F)(F)F)cc3)nc2C)c2ccccc12)C(=O)O` (racemic) [Example 136, [rac]-2-Methoxy-3-{4-[4-methyl-2-(4-trifluoromethyl-phenyl)-thiazol-5-ylmethoxy]-naphthalen-1-yl}-propionic acid] returned a melting point of 190 to 192 °C.
To `Cc1sc(-c2ccccc2)nc1CCOc1ccc(CC(OC(C)C)C(=O)O)c2sccc12` (racemic) [Example 79, [rac]-2-Isopropoxy-3-{4-[2-(5-methyl-2-phenyl-thiazol-4-yl)-ethoxy]-benzo[b]thiophen-7-yl}-propionic acid] belongs 73 °C; to `CCCOC(Cc1ccc(OCCc2nc(-c3ccc(C)cc3)sc2C)c2ccccc12)C(=O)O` (racemic) [Example 82, [rac]-3-{4-[2-(5-Methyl-2-p-tolyl-thiazol-4-yl)-ethoxy]-naphthalen-1-yl}-2-propoxy-propionic acid], 123 to 124 °C; to `CCCOC(Cc1ccc(OCCc2nc(-c3ccc(C(C)(C)C)cc3)sc2C)c2ccsc12)C(=O)O` (racemic) [Example 87, [rac]-3-(4-{2-[2-(4-tert-Butyl-phenyl)-5-methyl-thiazol-4-yl]-ethoxy}-benzo[b]thiophen-7-yl)-2-propoxy-propionic acid], 76 °C.
Regarding `CCOC(Cc1ccc(OCCc2nc(-c3ccc(C(C)(C)C)cc3)sc2C)c2ccccc12)C(=O)O` (racemic) [Example 73, [rac]-3-(4-{2-[2-(4-tert-Butyl-phenyl)-5-methyl-thiazol-4-yl]-ethoxy}-naphthalen-1-yl)-2-ethoxy-propionic acid], the melting point lay within 90 to 93 °C.
As for `CCCOC(Cc1ccc(OCCc2nc(-c3ccccc3)sc2C)c2ccccc12)C(=O)O` (racemic) [Example 80, [rac]-3-{4-[2-(5-Methyl-2-phenyl-thiazol-4-yl)-ethoxy]-naphthalen-1-yl}-2-propoxy-propionic acid], the melting point fell in the range of 95 to 99 °C.
To `COc1cc(OC)cc(-c2nc(CCOc3ccc(CC(OC(C)C)C(=O)O)c4sccc34)c(C)s2)c1` (racemic) [Example 85, [rac]-3-(4-{2-[2-(3,5-Dimethoxy-phenyl)-5-methyl-thiazol-4-yl]-ethoxy}-benzo[b]thiophen-7-yl)-2-isopropoxy-propionic acid] belongs 150 to 152 °C.
As to `COC(Cc1ccc(OCCc2nc(-c3ccc(C)cc3)sc2C)c2ccccc12)C(=O)O` (racemic) [Example 81, [rac]-2-Methoxy-3-{4-[2-(5-methyl-2-p-tolyl-thiazol-4-yl)-ethoxy]-naphthalen-1-yl}-propionic acid], the melting point is 155 to 156 °C.
`COC(Cc1ccc(OCc2sc(-c3ccc(C(F)(F)F)cc3)nc2C)c2ccsc12)C(=O)O` (racemic) [Example 138, [rac]-2-Methoxy-3-{4-[4-methyl-2-(4-trifluoromethyl-phenyl)-thiazol-5-ylmethoxy]-benzo[b]thiophen-7-yl}-propionic acid]: the melting point is 140 to 142 °C (dec.).
`CCOC(Cc1ccc(OCCc2nc(-c3ccc(C(C)C)cc3)sc2C)c2ccccc12)C(=O)O` (racemic) [Example 77, [rac]-2-Ethoxy-3-(4-{2-[2-(4-isopropyl-phenyl)-5-methyl-thiazol-4-yl]-ethoxy}-naphthalen-1-yl)-propionic acid] returned a melting point of 111 to 113 °C.
To `CCOC(Cc1ccc(OCc2sc(-c3ccc(C(F)(F)F)cc3)nc2C)c2ccccc12)C(=O)O` (racemic) [Example 137, [rac]-2-Ethoxy-3-{4-[4-methyl-2-(4-trifluoromethyl-phenyl)-thiazol-5-ylmethoxy]-naphthalen-1-yl}-propionic acid] belongs 186 to 188 °C; to `CCOC(Cc1ccc(OCCc2nc(-c3ccc(C(C)C)cc3)sc2C)c2ccsc12)C(=O)O` (racemic) [Example 75, [rac]-2-Ethoxy-3-(4-{2-[2-(4-isopropyl-phenyl)-5-methyl-thiazol-4-yl]-ethoxy}-benzo[b]thiophen-7-yl)-propionic acid], 120 to 122 °C.
In turn, `CCOC(Cc1ccc(OCc2sc(-c3ccc(C(F)(F)F)cc3)nc2C)c2ccsc12)C(=O)O` (racemic) [Example 139, [rac]-2-Ethoxy-3-{4-[4-methyl-2-(4-trifluoromethyl-phenyl)-thiazol-5-ylmethoxy]-benzo[b]thiophen-7-yl}-propionic acid] showed a melting point of 178 to 179 °C.
`CCOC(Cc1ccc(OCCc2nc(-c3ccc(C)cc3)sc2C)c2ccsc12)C(=O)O` (racemic) [Example 72, [rac]-2-Ethoxy-3-{4-[2-(5-methyl-2-p-tolyl-thiazol-4-yl)-ethoxy]-benzo[b]thiophen-7-yl}-propionic acid] displayed a melting point of 126 to 127 °C.
